Patent US12723128B2, “Aromatic diol compounds, diepoxide compounds, polymers prepared from such compounds, and methods for making the same” (SWIMC LLC, priority 2020, dated 2026)

Experiment: Stability by differential scanning calorimetry (DSC)
Type: physicochemical
Settings: FIG. 7
Procedure: In Example 9, the stability of the diglycidyl ether of Example 4B (cyclohexanone 2,6 methylene bis (2-furan, 5-methanol glycidyl ether)) was tested using differential scanning calorimetry (“DSC”).

Stability (stable up to): up to 180 °C
SMILES: O=C1/C(=C/c2ccc(COCC3CO3)o2)CCC/C1=C\c1ccc(COCC2CO2)o1 (stereo not shown) [Example 4B, cyclohexanone 2,6 methylene bis (2-furan, 5-methanol glycidyl ether)]
